Test results taken from patent publication US20250353891A1 (MEDIMMUNE LIMITED, priority 2022, published 2025).
Starred links: 1 amine or outer side, 2 acyl side, 3 side chain; linkers in the order of their positions; H or OH if unused. Non-standard residues stand in square brackets, D forms with d. Residues, ends and D or L forms follow the SMILES beside them. Groups on a side chain read outwards from the residue. *: point of attachment. C18 diacid = O=C(O)CCCCCCCCCCCCCCCCC(=O)*; γGlu = O=C(O)[C@H](CCC(=O)[*:2])N[*:1]; αMeF = C[C@](N)(Cc1ccccc1)C(=O)O; AEEA = NCCOCCOCC(=O)O; Aib = CC(C)(N)C(=O)O

Tests used:
[1] = biological target: human GLP-1 receptor (hGLP-1R) (Homo sapiens, UniProt P43220); test: cAMP production (HTRF) in CHO cells expressing hGLP-1R; type: cell-based; set-up: expressed in transfected cells; conditions: for EC50: Table 6, peptides modified at position 17, cAMP in CHO hGLP-1R cells, geometric mean, read-out: hGLP-1R EC50; for % Relative Potency Ratio: Table 6, % GLP-1R activity relative to GLP-1 / % GlucR activity relative to glucagon
Summary of the method: (§1)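 Read-out: HTRF cAMP (anti-cAMP cryptate donor, cAMP-d2 acceptor in conjugate/lysis buffer), converted to % Delta F and fitted by 4-parameter logistic for EC50. Cell densities were 1×10^5 cells/mL (hGLP-1R) or 2×10^5 cells/mL (hGCGR). Stimulation lasted 30 min at room temperature.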

[2] = biological target: human glucagon receptor (hGCGR) (Homo sapiens, UniProt P47871); test: cAMP production (HTRF) in CHO cells expressing hGCGR; type: cell-based; set-up: expressed in transfected cells; conditions: Table 6, peptides modified at position 17; cAMP in CHO hGCGR cells; geometric mean; read-out: hGluc-R EC50
Summary of the method: as §1

Sequence of human glucagon receptor (hGCGR) (P47871 26-477): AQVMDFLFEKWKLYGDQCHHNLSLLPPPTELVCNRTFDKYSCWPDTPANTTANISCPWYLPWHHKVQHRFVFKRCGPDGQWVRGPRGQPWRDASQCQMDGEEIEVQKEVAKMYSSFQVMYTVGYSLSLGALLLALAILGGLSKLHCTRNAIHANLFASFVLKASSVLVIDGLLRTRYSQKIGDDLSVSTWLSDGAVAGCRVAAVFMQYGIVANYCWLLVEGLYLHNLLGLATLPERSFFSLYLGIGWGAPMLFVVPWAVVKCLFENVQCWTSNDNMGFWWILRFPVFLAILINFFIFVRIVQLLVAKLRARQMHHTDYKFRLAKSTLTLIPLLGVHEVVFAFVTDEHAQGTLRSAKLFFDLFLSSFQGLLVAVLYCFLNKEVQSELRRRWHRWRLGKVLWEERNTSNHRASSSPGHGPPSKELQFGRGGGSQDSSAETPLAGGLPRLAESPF
Sequence of human GLP-1 receptor (hGLP-1R) (P43220 24-463): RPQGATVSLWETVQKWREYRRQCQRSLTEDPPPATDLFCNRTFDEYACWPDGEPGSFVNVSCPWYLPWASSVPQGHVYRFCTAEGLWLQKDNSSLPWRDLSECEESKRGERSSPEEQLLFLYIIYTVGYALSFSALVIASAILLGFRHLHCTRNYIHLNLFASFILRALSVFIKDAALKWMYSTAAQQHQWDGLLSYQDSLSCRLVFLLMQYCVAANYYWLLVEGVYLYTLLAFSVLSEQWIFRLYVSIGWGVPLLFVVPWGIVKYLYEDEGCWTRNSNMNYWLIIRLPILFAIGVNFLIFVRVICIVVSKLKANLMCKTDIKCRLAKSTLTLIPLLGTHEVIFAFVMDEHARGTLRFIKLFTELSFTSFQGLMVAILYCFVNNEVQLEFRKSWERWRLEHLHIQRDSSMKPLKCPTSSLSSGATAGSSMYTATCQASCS

| SMILES | EC50 [1] | % Relative Potency Ratio [1] | EC50 [2] |
| --- | --- | --- | --- |
| CC(C)C[C@H](NC(=O)[C@H](Cc1c[nH]c2ccccc12)NC(=O)[C@H](CCCNC(=N)N)NC(=O)[C@@H](NC(=O)[C@H](Cc1ccccc1)NC(=O)[C@H](CC(=O)O)NC(=O)[C@H](CCC(N)=O)NC(=O)[C@H](C)NC(=O)[C@H](CCCNC(=N)N)NC(=O)[C@H](CCCCNC(=O)COCCOCCNC(=O)COCCOCCNC(=O)CC[C@H](NC(=O)CCCCCCCCCCCCCCCCC(=O)O)C(=O)O)NC(=O)[C@H](CCCCN)NC(=O)[C@H](CC(=O)O)NC(=O)[C@H](CC(C)C)NC(=O)[C@](C)(Cc1ccccc1)NC(=O)[C@H](CCCCN)NC(=O)[C@H](CO)NC(=O)[C@@H](NC(=O)[C@H](CC(=O)O)NC(=O)[C@H](CO)NC(=O)[C@@H](NC(=O)[C@H](Cc1ccccc1)NC(=O)[C@@H](NC(=O)CNC(=O)[C@H](CCC(N)=O)NC(=O)C(C)(C)NC(=O)[C@@H](N)Cc1c[nH]cn1)[C@@H](C)O)[C@@H](C)O)C(C)C)C(C)C)C(=O)N[C@@H](CC(C)C)C(=O)NC(C)(C)C(=O)N[C@H](C(=O)N[C@@H](CCCCN)C(=O)O)[C@@H](C)O [Peptide 424] (H-H[Aib]QGTFTSDVSK[αMeF]LDKK([AEEA-AEEA-γGlu-C18 diacid])RAQDFVRWLL[Aib]TK-OH; N-terminus assumed) | 0.0155 nM | 16.5 | 0.129 nM |
| CC(C)C[C@H](NC(=O)[C@H](Cc1c[nH]c2ccccc12)NC(=O)[C@H](CCCNC(=N)N)NC(=O)[C@@H](NC(=O)[C@H](Cc1ccccc1)NC(=O)[C@H](CC(=O)O)NC(=O)[C@H](CCC(N)=O)NC(=O)[C@H](C)NC(=O)[C@H](CCCNC(=N)N)NC(=O)[C@H](CCCCNC(=O)COCCOCCNC(=O)COCCOCCNC(=O)CC[C@H](NC(=O)CCCCCCCCCCCCCCCCC(=O)O)C(=O)O)NC(=O)[C@H](CO)NC(=O)[C@H](CC(=O)O)NC(=O)[C@H](CC(C)C)NC(=O)[C@](C)(Cc1ccccc1)NC(=O)[C@H](CCCCN)NC(=O)[C@H](CO)NC(=O)[C@@H](NC(=O)[C@H](CC(=O)O)NC(=O)[C@H](CO)NC(=O)[C@@H](NC(=O)[C@H](Cc1ccccc1)NC(=O)[C@@H](NC(=O)CNC(=O)[C@H](CCC(N)=O)NC(=O)C(C)(C)NC(=O)[C@@H](N)Cc1c[nH]cn1)[C@@H](C)O)[C@@H](C)O)C(C)C)C(C)C)C(=O)N[C@@H](CCC(=O)O)C(=O)N[C@@H](C)C(=O)NC(C)(C)C(=O)NCC(N)=O [Peptide 429] (H-H[Aib]QGTFTSDVSK[αMeF]LDSK([AEEA-AEEA-γGlu-C18 diacid])RAQDFVRWLEA[Aib]G-NH2; N-terminus assumed) | 0.015 nM | 19.0 | 0.144 nM |

Other lines, results leading:

| EC50 [1] | % Relative Potency Ratio [1] | EC50 [2] | SMILES |
| --- | --- | --- | --- |
| 0.0115 nM | 142.3 | 0.827 nM | CC(C)C[C@H](NC(=O)[C@H](Cc1c[nH]c2ccccc12)NC(=O)[C@H](CCCNC(=N)N)NC(=O)[C@@H](NC(=O)[C@H](Cc1ccccc1)NC(=O)[C@H](CC(=O)O)NC(=O)[C@H](CCC(N)=O)NC(=O)[C@H](C)NC(=O)[C@H](CCCNC(=N)N)NC(=O)[C@H](CCCCNC(=O)COCCOCCNC(=O)COCCOCCNC(=O)CC[C@H](NC(=O)CCCCCCCCCCCCCCCCC(=O)O)C(=O)O)NC(=O)[C@H](CCCCN)NC(=O)[C@H](CC(=O)O)NC(=O)[C@H](CC(C)C)NC(=O)[C@](C)(Cc1ccccc1)NC(=O)[C@H](CCCCN)NC(=O)[C@H](CO)NC(=O)[C@@H](NC(=O)[C@H](CC(=O)O)NC(=O)[C@H](CO)NC(=O)[C@@H](NC(=O)[C@H](Cc1ccccc1)NC(=O)[C@@H](NC(=O)CNC(=O)[C@H](CCC(N)=O)NC(=O)C(C)(C)NC(=O)[C@@H](N)Cc1c[nH]cn1)[C@@H](C)O)[C@@H](C)O)C(C)C)C(C)C)C(=O)N[C@@H](CCCCN)C(=O)N[C@@H](C)C(=O)NC(C)(C)C(=O)NCC(=O)O [Peptide 425] (H-H[Aib]QGTFTSDVSK[αMeF]LDKK([AEEA-AEEA-γGlu-C18 diacid])RAQDFVRWLKA[Aib]G-OH; N-terminus assumed) |
| 0.0073 nM | 16.6 | 0.0612 nM | CC(C)C[C@H](NC(=O)[C@H](Cc1c[nH]c2ccccc12)NC(=O)[C@H](CCCNC(=N)N)NC(=O)[C@@H](NC(=O)[C@H](Cc1ccccc1)NC(=O)[C@H](CC(=O)O)NC(=O)[C@H](CCC(N)=O)NC(=O)[C@H](C)NC(=O)[C@H](CCCNC(=N)N)NC(=O)[C@H](CCCCNC(=O)COCCOCCNC(=O)COCCOCCNC(=O)CC[C@H](NC(=O)CCCCCCCCCCCCCCCCC(=O)O)C(=O)O)NC(=O)[C@H](CCCCN)NC(=O)[C@H](CC(=O)O)NC(=O)[C@H](CC(C)C)NC(=O)[C@](C)(Cc1ccccc1)NC(=O)[C@H](CCCCN)NC(=O)[C@H](CO)NC(=O)[C@@H](NC(=O)[C@H](CC(=O)O)NC(=O)[C@H](CO)NC(=O)[C@@H](NC(=O)[C@H](Cc1ccccc1)NC(=O)[C@@H](NC(=O)CNC(=O)[C@H](CCC(N)=O)NC(=O)C(C)(C)NC(=O)[C@@H](N)Cc1c[nH]cn1)[C@@H](C)O)[C@@H](C)O)C(C)C)C(C)C)C(=O)N[C@@H](CC(C)C)C(=O)N[C@@H](CCCNC(=N)N)C(=O)NC(C)(C)C(=O)N[C@@H](CCCCN)C(=O)O [Peptide 426] (H-H[Aib]QGTFTSDVSK[αMeF]LDKK([AEEA-AEEA-γGlu-C18 diacid])RAQDFVRWLLR[Aib]K-OH; N-terminus assumed) |
| 0.0124 nM | 7.5 | 0.0472 nM | CC(C)C[C@H](NC(=O)[C@H](Cc1c[nH]c2ccccc12)NC(=O)[C@H](CCC(N)=O)NC(=O)[C@@H](NC(=O)[C@H](Cc1ccccc1)NC(=O)[C@H](CC(=O)O)NC(=O)[C@H](CCCNC(=N)N)NC(=O)[C@H](C)NC(=O)[C@H](CCCNC(=N)N)NC(=O)[C@H](CCCCNC(=O)COCCOCCNC(=O)COCCOCCNC(=O)CC[C@H](NC(=O)CCCCCCCCCCCCCCCCC(=O)O)C(=O)O)NC(=O)[C@@H](NC(=O)[C@H](CC(=O)O)NC(=O)[C@H](CC(C)C)NC(=O)[C@](C)(Cc1ccccc1)NC(=O)[C@H](CCCCN)NC(=O)[C@H](CO)NC(=O)[C@@H](NC(=O)[C@H](CC(=O)O)NC(=O)[C@H](CO)NC(=O)[C@@H](NC(=O)[C@H](Cc1ccccc1)NC(=O)[C@@H](NC(=O)CNC(=O)[C@H](CCC(N)=O)NC(=O)C(C)(C)NC(=O)[C@@H](N)Cc1c[nH]cn1)[C@@H](C)O)[C@@H](C)O)C(C)C)[C@@H](C)O)C(C)C)C(=O)N[C@@H](CC(C)C)C(=O)N[C@@H](CCC(=O)O)C(=O)NC(C)(C)C(=O)NCC(N)=O [Peptide 427] |
| 0.0331 nM | 0.6 | 0.0105 nM | CC(C)C[C@H](NC(=O)[C@H](Cc1c[nH]c2ccccc12)NC(=O)[C@H](CCC(N)=O)NC(=O)[C@@H](NC(=O)[C@H](Cc1ccccc1)NC(=O)[C@H](CC(=O)O)NC(=O)[C@H](CCCNC(=N)N)NC(=O)[C@H](C)NC(=O)[C@H](CCCNC(=N)N)NC(=O)[C@H](CCCCNC(=O)COCCOCCNC(=O)COCCOCCNC(=O)CC[C@H](NC(=O)CC[C@H](NC(=O)CCCCCCCCCCCCCCCCC(=O)O)C(=O)O)C(=O)O)NC(=O)[C@@H](NC(=O)[C@H](CC(=O)O)NC(=O)[C@H](CC(C)C)NC(=O)[C@](C)(Cc1ccccc1)NC(=O)[C@H](CCCCN)NC(=O)[C@H](CO)NC(=O)[C@@H](NC(=O)[C@H](CC(=O)O)NC(=O)[C@H](CO)NC(=O)[C@@H](NC(=O)[C@H](Cc1ccccc1)NC(=O)[C@@H](NC(=O)CNC(=O)[C@H](CCC(N)=O)NC(=O)C(C)(C)NC(=O)[C@@H](N)Cc1c[nH]cn1)[C@@H](C)O)[C@@H](C)O)C(C)C)[C@@H](C)O)C(C)C)C(=O)N[C@@H](CC(C)C)C(=O)N[C@@H](CCC(=O)O)C(=O)NC(C)(C)C(=O)NCC(N)=O [Peptide 428] |
